From patent publication US9863966B2 (priority 2012, dated 2018)

Tests used:
[1] = test system: monoclonal antibody from hybridoma cell line NM4.3F5.C10.B7.B2.B2.C4; assay type: binding, sheep
[2] = cited from earlier work
[3] = cited from earlier work; for plasma elimination half-life: Demerol Prescribing Information datasheet; for half-life: Latta et al., 2002
[4] = cited from earlier work; remark: listed apart in the source

Structure (SMILES) | % Cross Reactivity [1] [%] | other results
CCC(=O)C(CC(C)N(C)C)(c1ccccc1)c1ccccc1 (stereo not shown) [Methadone] | <1 | –
CCOC(=O)C1(c2ccccc2)CCNCC1 [Normeperidine] | 100 | IC50 (antibody sensitivity) [1]: about 0.5 ng/ml; analgesic effectiveness relative to parent compound ([2]; relative to meperidine): half as effective; plasma elimination half-life [3]: 15 to 20 h; half-life [3]: 14 to 48 h; convulsant activity relative to parent compound ([4]; relative to meperidine): more active as a convulsant; neurotoxic potential relative to parent compound ([4]; relative to meperidine): up to 3 times
CCN(C(C)=O)c1cccc(-c2ccnc3c(C#N)cnn23)c1 [Zaleplon] | <1 | –
CCCC(C)(COC(N)=O)COC(N)=O [Meprobamate] | <1 | –
O=C(O)C(O)C(O)C(=O)O.Oc1ccc2c(c1)[C@@]13CCCC[C@@]1(O)[C@@H](C2)N(CC1CCC1)CC3 [Butorphanol Tartrate] | <1 | –
CN1CCN(C(=O)OC2c3nccnc3C(=O)N2c2ccc(Cl)cn2)CC1 (stereo not shown) [Zopiclone] | <1 | –
COc1ccc2c3c1O[C@H]1C(=O)CC[C@@]4(O)[C@@H](C2)N(C)CC[C@]314 [Oxycodone] | <1 | –
O=C(O)[C@H]1O[C@@H](OCC(Cl)(Cl)Cl)[C@H](O)[C@@H](O)[C@@H]1O [Urochloralic Acid] | <1 | –
COc1ccc2c3c1O[C@H]1C(=O)CC[C@H]4[C@@H](C2)N(C)CC[C@]314 [Hydrocodone] | <1 | –
CCO[C@@H]1O[C@H](C(=O)O)[C@@H](O)[C@H](O)[C@H]1O [Ethyl-Glucuronide] | <1 | –
COc1ccc2c3c1O[C@H]1[C@@H](O)C=C[C@H]4[C@@H](C2)N(C)CC[C@@]341 [Codeine] | <1 | –
Cc1ccc(-c2nc3ccc(C)cn3c2CC(=O)N(C)C)cc1 [Zolpidem] | <1 | –
CC(C)=CCN1CCC2(C)c3cc(O)ccc3CC1C2C (stereo not shown) [Pentazocine] | <1 | –
Oc1ccc2c3c1O[C@H]1[C@@H](O)CC[C@@]4(O)[C@@H](C2)N(CC2CCC2)CC[C@]314 [Nalbuphine] | <1 | –
CN1CC[C@]23CCCC[C@H]2[C@H]1Cc1ccc(O)cc13 [Levorphanol] | <1 | –
NC1(c2ccccc2Cl)CCCCC1=O (stereo not shown) [Norketamine] | <1 | –
CN1CC[C@]23c4c5ccc(O)c4O[C@H]2C(=O)CC[C@@]3(O)[C@H]1C5 [Oxymorphone] | <1 | –
CCOC(=O)C1(c2ccccc2)CCN(C)CC1 [Meperidine] | 102.5 | potency compared to morphine (times less potent) ([2]; Latta et al., 2002): 7-10 times; eliminated in the form of normeperidine ([3]; Baselt, 2008): around 17%; excreted unchanged in urine ([3]; Baselt, 2008): About 7%; plasma elimination half-life [3]: 3 to 4 h; half-life [3]: 3 to 6 h; fraction reaching systematic circulation (first-pass metabolism) ([3]; in vivo): around 50%; time of peak plasma concentrations after administration ([3]; intramuscular injection): 1 to 2 h; administered dose excreted in urine ([3]; within 24 hours, Moffat et al., 2003): Approximately 70%; daily dose reported to cause grand mal seizures ([4]; as low as, Latta et al., 2002): ≥ 260 mg; dose reported as causing muscle twitches or tremors ([4]; as low as, Latta et al., 2002): ≥ 46 mg per day
